The supplement of paper PMC11061612

Columns and labels:
Assay in all cases: Bliss excess, mean over the matrix (fraction); higher = more synergy
[1] = test system: TOV-21G (Ovarian Carcinoma)
Summary of the method: (§1)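 Cell lines grown in DMEM/F12 or RPMI with 10% FBS were plated in 1536-well plates and held 24 hours at 37°C, 5% CO2 before 72 hours of exposure to two-drug dose matrices, with DMSO typically at 0.2%. CellTiter-Glo 2.0 luminescence gave viability, which was converted to inhibition. Vehicle wells were set to 0 and blank wells to 1. Combination Emax is the second-highest inhibition in the matrix, and Bliss excess is the observed combination effect minus the expected EA + EB − EA·EB, where EA and EB are the single-agent effects.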

[2] = test system: OCI-M1 (Acute Myeloid Leukemia)
Summary of the method: as §1

[3] = test system: BT-474 (Breast Carcinoma)
Summary of the method: as §1

[4] = test system: NCI-H2170 (Squamous Cell Lung Carcinoma)
Summary of the method: as §1

[5] = test system: COR-L105 (Lung Adenocarcinoma)
Summary of the method: as §1

[6] = test system: NCI-H1944 (Lung Adenocarcinoma)
Summary of the method: as §1

GCIY (Gastric Carcinoma) = test system: GCIY (Gastric Carcinoma)
Summary of the method: as §1

SK-MEL-24 (Melanoma) = test system: SK-MEL-24 (Melanoma)
Summary of the method: as §1

[7] = test system: SBC-3 (Small Cell Lung Carcinoma)
Summary of the method: as §1

MG-63 (Osteosarcoma) = test system: MG-63 (Osteosarcoma)
Summary of the method: as §1

[8] = test system: NCI-H1975 (Lung Adenocarcinoma)
Summary of the method: as §1

DK-MG (Glioblastoma) = test system: DK-MG (Glioblastoma)
Summary of the method: as §1

[9] = test system: Daudi (Burkitt's Lymphoma)
Summary of the method: as §1

[10] = test system: CAL-85-1 (Breast Carcinoma)
Summary of the method: as §1

[11] = test system: NCI-H1048 (Small Cell Lung Carcinoma)
Summary of the method: as §1

[12] = test system: MDA-MB-175-VII (Breast Carcinoma)
Summary of the method: as §1

[13] = test system: NCI-H1435 (Non-Small Cell Lung Carcinoma)
Summary of the method: as §1

[14] = test system: KNS-62 (Squamous Cell Lung Carcinoma)
Summary of the method: as §1

[15] = test system: NCI-H835 (Other Solid Carcinomas)
Summary of the method: as §1

[16] = test system: TK (B-Cell Non-Hodgkin's Lymphoma)
Summary of the method: as §1

Row | SMILES | Bliss excess [1] | Bliss excess [2] | Bliss excess [3] | Bliss excess [4] | Bliss excess [5] | Bliss excess [6] | Bliss excess (GCIY (Gastric Carcinoma)) | Bliss excess (SK-MEL-24 (Melanoma)) | Bliss excess [7] | Bliss excess (MG-63 (Osteosarcoma)) | Bliss excess [8] | Bliss excess (DK-MG (Glioblastoma)) | Bliss excess [9] | Bliss excess [10] | Bliss excess [11] | Bliss excess [12] | Bliss excess [13] | Bliss excess [14] | Bliss excess [15] | Bliss excess [16]
1 | COc1cccc(OCCCN)c1-c1cc(Nc2cnc(C#N)cn2)n[nH]1 [Prexasertib] + CCc1c2c(nc3ccc(O)cc13)-c1cc3c(c(=O)n1C2)COC(=O)[C@]3(O)CC [SN-38] (first compound max 1 µM, 7x7, partner max 0.3 µM) | -0.122 | -0.0042 | -0.0075 | -0.0326 | -0.0404 | -0.006 | -0.0379 | -0.0557 | -0.0766 | -0.0315 | 0.108 | -0.0146 | -0.0078 | 0.0699 | 0.0152 | -0.0027 | 0.0171 | -0.0385 | -0.0014 | 0.0138
2 | NC1(C(=O)N[C@@H](CCO)c2ccc(Cl)cc2)CCN(c2ncnc3[nH]ccc23)CC1 [Capivasertib] + C[C@@H]1COCCN1C2=NC(=NC(=C2)C3(CC3)[S@](=N)(=O)C)C4=C5C=CNC5=NC=C4 [AZD6738] (first compound max 10 µM, 7x7, partner max 10 µM) | -0.0241 | 0.0211 | 0.0314 | -0.0011 | -0.034 | -0.0268 | -0.128 | -0.027 | -0.0479 | -0.0524 | -0.0576 | -0.0405 | 0.0167 | -0.0062 | -0.0204 | -0.0407 | 0.0077 | -0.0305 | -0.072 | -0.0045
3 | COc1nnc2ccc(N3CCC(c4ccc(OCCN5CCN(C)C(=O)[C@H]5C)cc4)CC3)nn12 [AZD5153] + C[C@@H]1COCCN1C2=NC(=NC(=C2)C3(CC3)[S@](=N)(=O)C)C4=C5C=CNC5=NC=C4 [AZD6738] (first compound max 1 µM, 7x7, partner max 10 µM) | -0.0018 | -0.0165 | 0.0788 | 0.0964 | -0.0092 | 0.0234 | 0.0327 | -0.0037 | -0.032 | 0.0223 | -0.0013 | -0.0073 | 0.0365 | -0.006 | 0.029 | 0.0118 | 0.0222 | -0.018 | -0.0811 | 0.0034
4 | CS(=O)(=O)CCNCc1ccc(-c2ccc3ncnc(Nc4ccc(OCc5cccc(F)c5)c(Cl)c4)c3c2)o1 [Lapatinib] + C[C@@H](Oc1cc(-c2cnn(C3CCNCC3)c2)cnc1N)c1c(Cl)ccc(F)c1Cl [Crizotinib] (first compound max 10 µM, 7x7, partner max 10 µM) | -0.0289 | -0.0347 | 0.0284 | -0.0026 | -0.004 | 0.015 | -0.003 | -0.118 | -0.0761 | -0.064 | -0.0428 | -0.0556 | -0.0179 | 0.0028 | -0.0255 | -0.0129 | 0.061 | -0.0527 | -0.117 | 0.0129
5 | NC1(C(=O)N[C@@H](CCO)c2ccc(Cl)cc2)CCN(c2ncnc3[nH]ccc23)CC1 [Capivasertib] + CCN(CCO)CCCOc1ccc2c(Nc3cc(CC(=O)Nc4cccc(F)c4)[nH]n3)ncnc2c1 [AZD2811] (first compound max 10 µM, 7x7, partner max 1 µM) | 0.0123 | 0.066 | 0.0025 | 0.0135 | -0.0523 | 0.101 | -0.0578 | -0.0891 | 0.059 | -0.0295 | -0.0558 | -0.0447 | 0.103 | -0.0241 | -0.0003 | -0.0202 | -0.0384 | -0.0086 | -0.103 | 0.0103
6 | NC1(C(=O)N[C@@H](CCO)c2ccc(Cl)cc2)CCN(c2ncnc3[nH]ccc23)CC1 [Capivasertib] + CC(=O)c1c(C)c2cnc(Nc3ccc(N4CCNCC4)cn3)nc2n(C2CCCC2)c1=O [Palbociclib] (first compound max 10 µM, 7x7, partner max 10 µM) | -0.0466 | -0.0056 | -0.0261 | 0.0137 | 0.0532 | 0.02 | -0.0402 | -0.0514 | 0.0265 | 0.0404 | -0.0456 | -0.0228 | 0.0065 | -0.0019 | -0.0269 | 0.0127 | -0.0245 | -0.0236 | -0.0562 | -0.0218
7 | COc1cccc2c1C(=O)c1c(O)c3c(c(O)c1C2=O)C[C@@](O)(C(=O)CO)C[C@@H]3O[C@H]1C[C@H](N)[C@H](O)[C@H](C)O1 [Doxorubicin] + Cc1cc2ncnn2cc1Nc1ncc2c(n1)n(C1CCOCC1)c(=O)n2C [AZD7648] (first compound max 1 µM, 7x7, partner max 10 µM) | 0.0091 | 0.102 | -0.0356 | 0.0706 | 0.022 | 0.0739 | 0.0606 | 0.0399 | 0.0553 | 0.0908 | 0.0542 | 0.0299 | 0.0985 | 0.0095 | 0.0539 | -0.0228 | 0.0002 | -0.0075 | 0.0207 | 0.0292
8 | COc1cccc(OCCCN)c1-c1cc(Nc2cnc(C#N)cn2)n[nH]1 [Prexasertib] + O=C(c1cc(Cc2n[nH]c(=O)c3ccccc23)ccc1F)N1CCN(C(=O)C2CC2)CC1 [Olaparib] (first compound max 1 µM, 7x7, partner max 10 µM) | -0.0111 | -0.0322 | -0.037 | -0.106 | -0.0135 | -0.0498 | -0.0476 | -0.0381 | -0.0544 | -0.0745 | 0.0284 | 0.0193 | -0.058 | -0.0209 | -0.0073 | -0.0407 | 0.0045 | -0.0637 | -0.045 | -0.0837
9 | CN(C)CCCOc1ccc(-c2ccc3ncc4c(c3c2)n(C2CCOCC2)c(=O)n4C)cn1 [AZD0156] + O=C(c1cc(Cc2n[nH]c(=O)c3ccccc23)ccc1F)N1CCN(C(=O)C2CC2)CC1 [Olaparib] (first compound max 3 µM, partner max 3 µM) | -0.0054 | 0.17 | -0.0189 | 0.0947 | 0.0527 | 0.106 | 0.0703 | 0.0037 | 0.206 | 0.0183 | 0.0548 | 0.0012 | 0.0672 | -0.039 | 0.0772 | -0.0365 | -0.0277 | 0.0435 | 0.0053 | 0.0213
10 | Cn1cnc2c(F)c(Nc3ccc(Br)cc3Cl)c(C(=O)NOCCO)cc21 [Selumetinib] + CCN(CCO)CCCOc1ccc2c(Nc3cc(CC(=O)Nc4cccc(F)c4)[nH]n3)ncnc2c1 [AZD2811] (first compound max 10 µM, 7x7, partner max 1 µM) | 0.0139 | 0.0927 | -0.0419 | -0.0566 | 0.0147 | 0.068 | -0.0127 | -0.0628 | -0.0518 | -0.0494 | 0.0012 | -0.0736 | 0.0504 | 0.0353 | -0.0121 | 0.0109 | -0.0112 | -0.0104 | -0.0289 | 0.0002
11 | CCc1c2c(nc3ccc(O)cc13)-c1cc3c(c(=O)n1C2)COC(=O)[C@]3(O)CC [SN-38] + CN(C)CCCOc1ccc(-c2ccc3ncc4c(c3c2)n(C2CCOCC2)c(=O)n4C)cn1 [AZD0156] (first compound max 0.3 µM, 7x7, partner max 1 µM) | -0.0349 | 0.0128 | -0.047 | 0.0296 | -0.0799 | -0.0343 | 0.0057 | 0.0267 | -0.0894 | -0.0166 | 0.006 | -0.0007 | 0.0078 | -0.0349 | 0.0147 | -0.0043 | -0.026 | -0.0557 | -0.0382 | 0.0322
